Read-outs that look alike come from different tables or passages of the source.
Experiments:
[1] = target: T1, human TAS2R44 bitter taste receptor (Homo sapiens, UniProt P59538, L162M); assay: TAS2R44 bitter taste receptor assay for IC50 determination (Fluo-4 calcium assay); assay type: cell-based
T1 construct: The TAS2R44 construct contains RSS tag, TAS2R44, and the HSV tag which are fused in frame; expressed in transfected cells; host or cells: HEK293T/Galpha16-gustducin44 cells, stably transfected with pcDNA3.1Zeo-TAS2R44
T1 sequence (P59538 with tags, fused parts or gaps L162M): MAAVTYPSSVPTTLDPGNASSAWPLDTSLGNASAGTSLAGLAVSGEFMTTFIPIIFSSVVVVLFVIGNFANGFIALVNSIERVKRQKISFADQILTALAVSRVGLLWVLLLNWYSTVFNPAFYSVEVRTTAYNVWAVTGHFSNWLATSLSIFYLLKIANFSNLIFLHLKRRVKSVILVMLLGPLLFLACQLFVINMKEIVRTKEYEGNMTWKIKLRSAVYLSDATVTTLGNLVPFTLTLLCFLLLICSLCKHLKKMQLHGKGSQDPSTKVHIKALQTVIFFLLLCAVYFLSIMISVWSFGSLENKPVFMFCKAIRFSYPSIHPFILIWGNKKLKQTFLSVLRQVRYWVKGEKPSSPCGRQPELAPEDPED
Method: A receptor screen with concentration-response analysis was performed and from results inhibitory concentration (IC) IC50 values can be calculated by nonlinear regression using the function f(x)=(a−d)/(1+(x/C)^nh)+d; with a=minimum signal, d=maximum signal, nh=hill coefficient, C=IC50. and x=concentration of antagonist.
IC50 is the molar concentration of an antagonist which produces 50% of the maximum possible inhibitory response for that antagonist.
The full length gene of human TAS2R44 was amplified by polymerase chain reaction (PCR) using gene-specific primers that span the entire coding region as described in WO 2004/029087.
The TAS2R44 cDNA was subcloned into an expression cassette based on either of the following plasmids/expression vectors: pcDNA3.1Zeo (Invitrogen). These vectors contain within their multiple cloning sites the nucleotide sequence coding for the first 45 amino acids of the rat somatostatin receptor subtype 3 (RSS tag) to facilitate cell surface targeting of the transgene (SEQ ID #4) and the nucleotide sequence coding for the herpes simplex virus (HSV) glycoprotein D epitope (HSV epitope in aminoterminal to carboxyterminal direction, HSV tag). (SEQ ID #3) for facilitating immunocytochemical detection.
The TAS2R44 construct contains RSS tag, TAS2R44, and the HSV tag which are fused in frame to allow translation into the receptor protein and the resulting receptor cDNA. This transfected expression vector is called pcDNA3.1Zeo-TAS2R44 (SEQ ID #1) and allows for expression of the TAS2R44 protein (SEQ ID #2).
A cell line that stably expresses the human bitter taste receptor (TAS2R44) was generated by transfecting pcDNA3.1Zeo-TAS2R44 into HEK293T/Gα16-gustducin 44 cells (both formed as described in under 1) above. The host cell line HEK-293T is commercially available from the American […] (catalog #CRL-1573).
Fluo-4 AM (Invitrogen) is a fluorescent indicator of intracellular calcium dynamics (change in concentration) and allows monitoring changes in the calcium concentration, particularly an increase in response to receptor activation occurring after agonist exposure.
At day 0, the HEK293T cell line stably expressing Gα16-gustducin44 and TAS2R44 formed as described under 2) was seeded in antibiotic-free growth medium (standard DMEM with 10% (v/v) heat-inactivated fetal bovine serum, 2 mM L-glutamine […]) into black wall/clear bottom 96-well plates, coated with poly(ethylenimine) (0.005% v/v) at a concentration of 15,000 cells per well and incubated for 48 hours in humidified atmosphere (37° C., 5% CO2).
At the time of the assay, the growth medium was discarded and the cells were further incubated in a humidified atmosphere (37° C., 5% CO2) for 1 hour with 50 μl of loading buffer consisting of 1.5 μM Fluo-4 AM and 2.5 μM probenicid (Sigma-Aldrich) in DMEM.
Afterwards, the 96-well plate was washed 5 times with 200 μl of assay buffer (130 mM NaCl, 5 mM KCl, 10 mM HEPES, 2 mM CaCl2, and 5 mM dextrose, pH 7.4) per well, using an automated plate washer (BioTek). The plate was further incubated for 30 minutes at room temperature in the dark to allow for complete de-esterification of the Fluo-4. Afterwards the plate was washed 5 times with 200 μl of assay buffer per well, and reconstituted with 180 μl of assay buffer per well.
For assay reading, the plate was placed in a Fluorometric Imaging Plate Reader (FLIPR) (FLIPR-TETRA™, Molecular Devices), and receptor activation was initiated by addition of 20 μl of a tenfold concentrated agonist stock solution (to give the desired agonist end concentration when added to the 180 microliter assay buffer volume), which was prepared in assay buffer.
Fluorescence was continuously monitored for 20 seconds to give a signal baseline (averaged to give F0) prior to agonist addition and for 120 seconds after agonist addition. […]

[2] = test system: panel of bitter sensitive individuals; assay: Sensory evaluation, forced choice test in water with sucralose; assay type: in vivo; details: 13 ppm in water with sucralose 1 mM, 3 mM, 7 mM
Method: The bitter blocker (13 ppm) was tested in water with sucralose in concentrations of 1 mM, 3 mM, and 7 mM by a panel of bitter sensitive individuals (15) in two replications per each concentration. The samples were compared to negative controls without bitter blocker and panelists were instructed to choose the less bitter sample in a forced choice test.

[3] = agonist not stated, read-out: IC50 when tested with the TAS2R44 bitter taste receptor

Compound	IC50 [1, 3]	IC50 ([1]; sucralose (50 mM) as agonist, same range as example 4)	effect on bitterness vs negative control without bitter blocker [2]	panelists that chose the sample with bitter blocker as less bitter ([2]; forced choice, 15 individuals, two replications)
CC1(C(=O)O)CC1CC1CC2CC2(C)C1(C)C (stereo not shown) [1-methyl-2-((1,2,2-trimethylbicyclo[3.1.0]hexan-3-yl)methyl)cyclopropanecarboxylic acid]	0.1 to 20 µM	–	–	–
CC1CCC(CC(=O)O)CC1C (stereo not shown) [2-(3,4-dimethylcyclohexyl)acetic acid]	0.1 to 20 µM	–	–	–
CC1=CCCC(C)(C)C1CCC(C)C(=O)O (stereo not shown) [2-methyl-4-(2,6,6-trimethylcyclohex-2-enyl)butanoic acid]	0.1 to 20 µM	–	–	–
CC1CCCC(C)(C)C1CCC(=O)O (stereo not shown) [3-(2,2,6-trimethylcyclohexyl)propanoic acid]	0.1 to 20 µM	–	–	–
CC1=CCC(C/C=C/C(=O)O)C1(C)C (stereo not shown) [4-(2,2,3-trimethylcyclopent-3-enyl)but-2-enoic acid]	0.1 to 20 µM	within the same range	significantly reduce bitterness	22/30
CC1CCC(CCCC(=O)O)C1(C)C (stereo not shown) [4-(2,2,3-trimethylcyclopentyl)butanoic acid]	0.1 to 20 µM	–	–	–
CC1CCCC(C)(C)C1CCCC(=O)O (stereo not shown) [4-(2,2,6-trimethylcyclohexyl)butanoic acid]	0.1 to 20 µM	–	–	–
